Key:
[1] = Visual dissolution study in SLS/water solution (scintillation vials); format: physicochemical; conditions: 250 mg oil in 10 ml 0.25% or 0.5% SLS in water, stirred 20 minutes
Experimental: Visual dissolution studies were conducted at small scale using 20 ml scintillation vials on LMP formulations 1 through 3. The test was conducted at 37° C., 25° C. and 5° C. using a 0.25% Sodium Laurel Sulfate (SLS) in water solution. A heated aluminum block and heated stir plate were used in the study. 500 mg (250 mgA, 25 mgA/mL) of each LMP formulation was added to 10 mL pre-heated 0.25% SLS solution. The samples were stirred using a Teflon stir bar on a heated stir plate to maintain temperature for 20 minutes. After 20 minutes, the LMP suspensions were allowed to settle and were assessed visually.
Finally the test was repeated using only LMP-1 and a 0.5% SLS/water solution to access if additional surfactant would help with the apparent dissolution by increasing the solubility of the oil in water.
An oil dissolution control test was conducted to determine how the caprylic triglyceride (Miglyol 808) oil dissolves into an SLS/water solution. Two SLS stock solutions were made at 0.25% and 0.5% SLS in water. 10 ml of each SLS solution was added to a scintillation vial along with a magnetic stir bar. 250 mg of caprylic triglyceride (Miglyol 808) oil was added to each vial and stirred for 20 minutes. Images were taken after 10 minutes and two days. […] The vial does appear slightly hazy in the 10 minute photo indicating some oil is likely emulsified in the water phase. […]

[2] = USP Type II sink dissolution, 2.0 wt % SLS in pH 6.8 buffer; format: physicochemical; conditions: for % LC Release, 10μ filtered: 500 mgA in 900 mL, 37° C.
Experimental: LMPs 1, 2, and 3 were tested in a USP Type II sink dissolution experiment along with caprylic triglyceride (Miglyol 808) oil. 500 mgA of formulation was dosed into a 1000 mL vessel containing 900 mL of 2.0wt % SLS in pH 6.8 buffer. Samples were taken at 30 minutes and 17.5 hours.
LMP-5, 7, 9, and 11 formulations were tested in a USP Type II sink dissolution experiment sink performance test using methods outlined described in EXAMPLE 3 (Tables 3-A, 3-B). […] The release rate trends as expected, in that adding more carnauba wax to the LMP matrix slows the dissolution. This is because carnauba wax is more hydrophobic than Compritol 888. […] Adding a pore former to the base LMP-11 formulation may allow for increased dissolution performance by enhancing water permeability while maintaining the desirable physical and handling attributes.
Formulations BREC1690-155, 156, 160, 161, and 162 were tested in a sink dissolution performance test using methods outlined herein at EXAMPLE 3 (Tables 3-A and 3-B). The dissolution rate was increased by the addition of a water soluble component (PVP 17PF, PVP-VA 64 or poloxamer P407). Dissolution was tested on formulations BREC1690-155, 156, 160, 161, and 162. Comparisons of previous Compritol based LMPs (LMP-2 and LMP-5) and BREC1690- 155, 156, and 162 with a dissolution enhancer are shown in FIG. 22.

% LC Release, centrifuged ([2]; 30 minutes): 31.6% ± 2%
% LC Release, 10μ filtered ([2]; 30 minutes): 64% (n = 1) % LC
% LC Release, 0.2μ filtered ([2]; 17.5 hours): 87% ± 7%
% LC Release, centrifuged ([2]; 17.5 hours): 27.3% ± 0.6%
% LC Release, 10μ filtered ([2]; 17.5 hours): 46.5% ± 0.5%
Substance: caprylic triglyceride [Miglyol 808]
oil dissolution control, visual [1]: majority of the oil floats on top of the water rather than going into solution
